PMC12560828, “Chemical structure drives developmental toxicity of alkyl-substituted naphthalenes in zebrafish” (Environment international, 2025)

Legend:
[1] = test system: zebrafish larvae, 120 hpf; assay: Larval photomotor response (LPR) assay after vial exposure; assay type: in vivo, Danio rerio; conditions: for LPR behavioral effect: 120 hpf, light/dark periods, result in words; for fold_change: LPR
Method: (§1) When embryos were 6 hpf they were bleached in groups of 1000 or less to limit bacterial growth in sealed vials. Embryos were placed in a strainer for transfer between solutions in 500 mL containers. […] Pools of eight embryos were placed into 2 mL clear glass screw cap exposure vials with polyvinyl-faced pulp liner (Avantar Radnor, PA, United States) using a glass Pasteur pipette. Excess EM was removed, and 2 mL of fresh EM was immediately added. A total of 10 uL of 200x working stock (in DMSO) was added to each vial, then immediately capped and inverted three times to mix. […] Vials were loaded into a custom 3D printed vial holder for slow end-over-end rotation in a dark 28 °C incubator overnight. […] At 24 hpf, embryos were removed from exposure vials and singulated into 96-well plates loaded with 100 μL chemical-free EM. Each exposure vial group was maintained in plate columns. After loading into 96-well plates, embryos were assessed for 24-hour mortality. For the remainder of the exposure, plates were kept stationary at 28 °C in the dark, until 120 hpf when morphology screening and the larval photo motor response (LPR) assay were conducted, section 2.3.2 and section 2.3.3, respectively.
Each treatment group was replicated over four vials, resulting in 32 embryos per treatment, split over two replicate 96-well plates per chemical. […] Vial groups of plated larvae were tracked to assess the impact of the vial on the results. All reported concentrations were nominal water concentrations and are included in SI-T4.
The LPR assay was conducted at 120 hpf. […] Larval movement was tracked throughout minutes 6–24. Animals dead or morphologically abnormal were excluded from the analysis, and if more than 30 % of the wells in a treatment group were excluded, the treatment was removed.
Movement values were binned into 6s intervals, log normalized and used to calculate area under the curve (AUC). AUC values from the first cycle after calibration were used to calculate the LEL for each period (light and dark).

[2] = test system: early life stage zebrafish (Danio rerio) embryos; assay: Developmental toxicity morphology screen, sealed rotating vial exposure; assay type: in vivo; design: bmd, MO24 / bmd, MORT / bmd, ANY_ / bmd, AXIS / bmd, CRAN / bmd, EDEM / bmd, LTRK / bmd, MUSC / bmdL, ANY_ / bmdU, ANY_ / bmdL, AXIS / bmdU, AXIS / bmdL, CRAN / bmdU, CRAN / bmdL, EDEM / bmdU, EDEM / bmdL, LTRK / bmdU, LTRK / bmdL, MO24 / bmdU, MO24 / bmdL, MORT / bmdU, MORT: unit not given here; conditions: for BMC50 Any effect: Fig. 2 heatmap, exposure 6-24 hpf in vials, summary of all endpoints; for any effect BMD50: SI-T5; for bmd, MO24: endpoint MO24; for bmd, ANY_: morphology endpoint ANY_ (any effect)
Method: as §1
Each treatment group was replicated over four vials, resulting in 32 embryos per treatment, split over two replicate 96-well plates per chemical. […] All reported concentrations were nominal water concentrations and are included in SI-T4.
At 24 hpf embryos were assessed for mortality (MO24). At 120 hpf embryos were assessed for abnormality in […] morphological endpoints: mortality (MORT), edemas (EDEM), bent axis (AXIS), touch response (TCHR), craniofacial (CRAN), muscular/cardiovascular (MUSC), lower trunk (LRTK), brain (BRAN), skin (SKIN), and notochord malformations (NC). Morphological assessments were made by a team of three to four individuals. The team was blinded to the identity, plate layout, and concentrations of the chemicals, thereby minimizing bias in morphological screening assessment. To ensure the assessments were consistent, concentration–response reproducibility of a parathion ethyl quality control plate was performed along with each experimental exposure set up. Details of all measured endpoints can be found at Developmental toxicity zebrafish phenotype atlas. […] Each endpoint was scored as a binary presence/absence and scores were compiled into an “Any effect” endpoint, the presence of abnormality in any individual endpoint.
The Any effect percent was used to calculate the BMC50, 50 % change relative to the background for each endpoint and chemical. All values were reported as the nominal exposure concentration.

[3] = test system: zebrafish embryos, gene expression at 48 hpf; assay: Targeted transcriptomics (TempO-Seq S1500+ zebrafish panel), differential expression; assay type: in vivo, Danio rerio; conditions: 20 μM, result in words
Method: Targeted transcriptomics were performed using the Biospyder™ TempO-Seq™ 96-well plate platform. This platform used detector oligos for a gene set of 3112 probes selected through data driven approaches and expert curation ([Balik-Meisner et al., 2019]). The targeted transcriptomics approach was selected to maximize the number of chemicals that could be included in the analysis while managing cost and data analysis requirements. Targeted transcriptomics were limited to 96 samples, three chemicals without morphological effects were excluded from the analysis to ensure n = 4 per chemical and n = 6 controls, excluded chemicals are indicated in SI-T3.
A single exposure concentration of 20 μM was chosen as the maximum possible concentration to elicit a biological response that also ensured enough viable animals for RNA collection for every chemical. The same concentration per chemical was chosen as opposed to a phenotypically anchored concentration due to variability in 48 hpf survival across chemicals at the same 120 hpf percent effect and to allow for a direct comparison of chemical potency and transcriptomic response. 48 hpf was chosen to ensure the measurement of transcriptomic responses prior to the emergence of observable phenotypic effects. This timepoint has been used extensively and enhanced the ability to compare our results across datasets. Exposure was conducted over two days, chemicals were split into day groups by numerical order of randomly generated internal labels, 11 chemicals and control each day, n = 48 embryos across six vials per treatment. Exposure was conducted as previously described in section 2.3. At 48 hpf embryos were collected for RNA extraction. Embryos from two exposure vials were kept for morphological effect assessments which were as expected based on screening results. From the remaining wells, six phenotypically normal embryos were collected and pooled in their vial groups into 1.5 mL Eppendorf tubes, placed on ice (~30 sec), excess medium was removed, placed back on ice (~30 sec), and 200 μL RNA shield was added. […] of n = 6 pooled embryos were collected from each treatment.
RNA was extracted from exposure groups on day one and day two. 100 μL of lysis buffer was added to each tube containing pooled embryo samples and 200 μL of RNA shield, the full contents of the tube were then transferred to the homogenization plate (2 mL deep 96-well plate pre-filled with 400 μL 1 mm zirconium beads and 500 μL of lysis buffer). The plate was homogenized for 1.5 min using the Mini-BeadBeater 96 (BioSpec Products, Bartlesville, OK, United States) and centrifuged for five min at 3000 rcf. 550 μL of the supernatant was distributed over two plates, each pre-filled with 275 μL of ethanol. RNA extraction was performed using the KingFisher Apex System (ThermoFisher Scientific, Waltham, MA, United States) and Quick-RNA Magbead kit (Zymo Research Corporation, Irvine, CA, Untied States). Briefly, this automated process uses Mag beads to collect RNA from the sample, after a series of washes and treatment with DNase the RNA is eluted in 50 μL of ultra-pure water. RNA quality was assessed using the 4150 TapeStation System (Agilent, Santa Clara, CA, United States). All samples used had RNA integrity number (RIN) scores >9.8. RNA concentration was determined using Quant-iT RNA Reagent and assay kit and Varioskan ALF multi-mode plate reader (ThermoFisher Scientific, Waltham, MA, United States) in duplicate, samples with high variability (coefficient of variance (CV) > 10) between reads were repeated in triplicate. The average of the quantification reads was used for RNA concentration normalization. […] All 94 samples were normalized using ultra-pure water to the lowest concentration sample − 14.9 ng/μL. […]

[4] = period dark, round 1, conc 3.125
[5] = period dark, round 1, conc 6.25
[6] = period dark, round 1, conc 12.5
[7] = period light, round 1, conc 3.125
[8] = period light, round 1, conc 6.25
[9] = period light, round 1, conc 12.5

Compound | LPR behavioral effect [1] | fold_change [1, 4] | fold_change [1, 5] | fold_change [1, 6] | fold_change [1, 7] | fold_change [1, 8] | fold_change [1, 9] | BMC50 MO24 (mortality at 24 hpf) ([2]; Fig. 2, nominal concentration) | BMC50 MORT (mortality at 120 hpf) ([2]; Fig. 2, nominal concentration) [µM] | BMC50 Any effect ([2]; nominal concentration) [µM] | any effect BMD50 [2] [µM] | bmd, MO24 ([2]; benchmark dose) | bmd, MORT ([2]; benchmark dose, endpoint MORT) | bmd, ANY_ ([2]; benchmark dose) | fold_change ([1]; period dark, round 1, conc 25) | fold_change ([1]; period light, round 1, conc 25) | fold_change ([1]; period dark, round 1, conc 50) | fold_change ([1]; period light, round 1, conc 50) | other results
Cc1ccc(C)c2c(C)cccc12 [1,4,5-trimethylnaphthalene] | hyperactivity during the light period | 0.1634 | 0.08749 | -0.2344 | -0.0344 | 0.04487 | 0.5316 | 27.7 µM | 23.5 | 19.7 | 19.74 | 27.7283 | 23.5002 | 19.7402 | – | – | – | – | fold_change ([1]; period dark, round 2, conc 12.8): 0.03668; fold_change ([1]; period dark, round 2, conc 16): -0.1932; fold_change ([1]; period dark, round 2, conc 20): 0.4872; fold_change ([1]; period light, round 2, conc 12.8): 0.4664; fold_change ([1]; period light, round 2, conc 16): -0.1141; fold_change ([1]; period light, round 2, conc 20): 1.443; nt5dc2 expression [3]: decreased expression
Cc1cccc2cccc(C)c12 [1,8-dimethylnaphthalene] | – | -0.1333 | 0.3857 | -0.2522 | 0.4922 | 0.5326 | -0.3791 | 49.8 µM | 48.7 | 41.2 | 41.15 | 49.8371 | 48.678 | 41.1508 | -0.4588 | 0.4908 | – | – | fold_change ([1]; period dark, round 2, conc 30): -0.4155; fold_change ([1]; period dark, round 2, conc 37.5): -0.7493; fold_change ([1]; period dark, round 2, conc 45): -0.6849; fold_change ([1]; period light, round 2, conc 30): -0.235; fold_change ([1]; period light, round 2, conc 37.5): -0.3043; fold_change ([1]; period light, round 2, conc 45): 1.248
Cc1ccc(C)c2ccccc12 [1,4-dimethylnaphthalene] | – | 0.2846 | -0.05841 | -0.1506 | 0.303 | -0.4509 | 1.1 | 30.4 µM | 28.3 | 24.9 | 24.93 | 30.4433 | 28.3398 | 24.9263 | -0.2067 | 0.6023 | – | – | –
Cc1cccc2ccccc12 [1-methylnaphthalene] | active | -0.2838 | -0.4018 | -0.5302 | 0.7433 | 0.645 | 0.113 | – | – | – | – | – | – | – | -0.8382 | 0.4697 | -0.8713 | 0.667 | morphological effects (BMC50 for any morphological endpoint) ([2]; 0-50 μM, result in words): no morphological BMC50 values
CC(C)(C)c1ccc2ccc(C(C)(C)C)cc2c1 [2,7-di-tert-butylnaphthalene] | – | -0.2175 | -0.4542 | -0.5803 | 0.7527 | 0.7301 | 0.5841 | no MO24 BMC50 | 41.3 | 24.7 | 24.66 | – | – | 24.6598 | -1.44 | 0.3464 | – | – | BMC50 EDEM (pericardial and/or yolk sac edema at 120 hpf) ([2]; Fig. 2, nominal concentration): 33.6 µM; bmd, MORT ([2]; endpoint MORT, benchmark dose): 41.3049; bmdL, MORT ([2]; endpoint MORT, lower limit of benchmark dose): 34.7649; bmdU, MORT ([2]; endpoint MORT, upper limit of benchmark dose): 51.9197; bmd, EDEM ([2]; morphology endpoint EDEM, benchmark dose): 33.6463; bmdL, EDEM ([2]; morphology endpoint EDEM, lower limit of benchmark dose): 26.4386; bmdU, EDEM ([2]; morphology endpoint EDEM, upper limit of benchmark dose): 67.8341
Cc1cc2ccccc2cc1C [2,3-dimethylnaphthalene] | – | -0.07813 | -0.1051 | -0.1104 | -0.3145 | -0.003485 | -1.16 | – | – | 46.6 | 46.56 | – | – | 46.5587 | -0.9852 | -0.6826 | -1.366 | -0.533 | –
